Source: patent US20210045385A1, “PYRIDAZINONE-SUBSTITUTED KETOXIMES AS HERBICIDES” (FMC Corporation, priority 2018, published 2021)

Experiments:
Format in all cases: in vivo
[1] = tested on: barnyardgrass (Echinochloa crus-galli); test: Test D flooded paddy test, visual plant response rating; conditions: 250 g ai/ha, scale 0 to 100 (0 no effect, 100 complete control), 13 to 15 d
Outline: (§1)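 Plants were grown to the 2-leaf stage, pots flooded to 3 cm above soil, and compound applied directly into the paddy water, with the depth held throughout. After 13 to 15 d in a greenhouse, response was rated visually against untreated controls on a 0–100 scale (0 no effect, 100 complete control).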

[2] = tested on: sedge umbrella (small-flower umbrella sedge, Cyperus difformis); test: as above; conditions: 250 g ai/ha, scale 0 to 100 (0 no effect, 100 complete control), 13 to 15 d
Outline: as §1

rice (Oryza sativa) = test: as above; conditions: 250 g ai/ha, scale 0 to 100 (0 no effect, 100 complete control), 13 to 15 d
Outline: as §1

[3] = tested on: duck salad (Heteranthera limosa); test: as above; conditions: 250 g ai/ha, scale 0 to 100 (0 no effect, 100 complete control), 13 to 15 d
Outline: as §1

[4] = tested on: barnyardgrass (Echinochloa crus-galli); test: Test C preemergence, visual plant response rating; conditions: Test C, 0 is no effect, 100 is complete control
Outline: (§2)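 Compounds in a non-phytotoxic solvent with surfactant were applied as a directed soil spray preemergence or to 2–10 cm, one- to two-leaf plants postemergence, in loam–sand soil. After about 10 d in a greenhouse, injury was visually rated against untreated controls on a 0–100 scale (100 = complete control).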

[5] = tested on: foxtail, giant (giant foxtail, Setaria faberi); test: Test C preemergence, visual plant response rating; conditions: Test C, 0 is no effect, 100 is complete control
Outline: as §2

kochia (Bassia scoparia) [6] = test: Test C preemergence, visual plant response rating; conditions: Test C, 0 is no effect, 100 is complete control
Outline: as §2

[7] = tested on: Italian ryegrass (Lolium mutiflorum); test: Test C preemergence, visual plant response rating; conditions: Test C, 0 is no effect, 100 is complete control
Outline: as §2

[8] = tested on: ragweed (common ragweed, Ambrosia artemisiifolia); test: Test C preemergence, visual plant response rating; conditions: Test C, 0 is no effect, 100 is complete control
Outline: as §2

[9] = tested on: pigweed (Amaranthus retroflexus); test: Test C preemergence, visual plant response rating; conditions: Test C, 0 is no effect, 100 is complete control
Outline: as §2

[10] = tested on: barnyardgrass (Echinochloa crus-galli); test: Test C postemergence, visual plant response rating
Outline: as §2

[11] = tested on: foxtail, giant (giant foxtail, Setaria faberi); test: Test C postemergence, visual plant response rating
Outline: as §2

[12] = tested on: blackgrass (Alopecurus myosuroides); test: Test C postemergence, visual plant response rating
Outline: as §2

[13] = tested on: wheat (Triticum aestivum); test: Test C postemergence, visual plant response rating
Outline: as §2

corn (Zea mays) = test: Test C postemergence, visual plant response rating
Outline: as §2

kochia (Bassia scoparia) [14] = test: Test C postemergence, visual plant response rating
Outline: as §2

[15] = tested on: Italian ryegrass (Lolium mutiflorum); test: Test C postemergence, visual plant response rating
Outline: as §2

[16] = tested on: ragweed (common ragweed, Ambrosia artemisiifolia); test: Test C postemergence, visual plant response rating
Outline: as §2

[17] = tested on: pigweed (Amaranthus retroflexus); test: Test C postemergence, visual plant response rating
Outline: as §2

[18] = tested on: galium (catchweed bedstraw, Galium aparine); test: Test C postemergence, visual plant response rating
Outline: as §2

[19] = Test C, postemergence, 125 g ai/ha

Row | SMILES | Plant response rating, Barnyardgrass (Flood) [1] | Plant response rating, Sedge, Umbrella (Flood) [2] | Plant response rating, Rice (Flood) (rice (Oryza sativa)) | Plant response rating, Ducksalad (Flood) [3] | Barnyardgrass plant response rating (0 to 100 scale) ([4]; 31 g ai/ha) | Barnyardgrass plant response rating (0 to 100 scale) ([4]; 125 g ai/ha) | Foxtail, Giant plant response rating (0 to 100 scale) ([5]; 31 g ai/ha) | Foxtail, Giant plant response rating (0 to 100 scale) ([5]; 125 g ai/ha) | Kochia plant response rating (0 to 100 scale) (kochia (Bassia scoparia) [6]; 31 g ai/ha) | Kochia plant response rating (0 to 100 scale) (kochia (Bassia scoparia) [6]; 125 g ai/ha) | Ryegrass, Italian plant response rating (0 to 100 scale) ([7]; 31 g ai/ha) | Ryegrass, Italian plant response rating (0 to 100 scale) ([7]; 125 g ai/ha) | Ragweed plant response rating (0 to 100 scale) ([8]; 31 g ai/ha) | Ragweed plant response rating (0 to 100 scale) ([8]; 125 g ai/ha) | Pigweed plant response rating (0 to 100 scale) ([9]; 31 g ai/ha) | Pigweed plant response rating (0 to 100 scale) ([9]; 125 g ai/ha) | Barnyardgrass plant response rating (0 to 100 scale) ([10]; Postemergence, 31 g ai/ha) | Barnyardgrass plant response rating (0 to 100 scale) [10, 19] | Foxtail, Giant plant response rating (0 to 100 scale) ([11]; Postemergence, 31 g ai/ha) | Foxtail, Giant plant response rating (0 to 100 scale) [11, 19] | other results
1 | C#CCO/N=C(\c1cccc(/C=C/Cl)c1)c1c(O)c(C)nn(C)c1=O [Compound 254] | 0 | 0 | 0 | 0 | 0 | 0 | 0 | 40 | 0 | 0 | 20 | 60 | 40 | 90 | 0 | 10 | 30 | 50 | 20 | 60 | Blackgrass plant response rating (0 to 100 scale) ([12]; Postemergence, 31 g ai/ha): 10; Blackgrass plant response rating (0 to 100 scale) [12, 19]: 70; Wheat plant response rating (0 to 100 scale) ([13]; Postemergence, 31 g ai/ha): 30; Wheat plant response rating (0 to 100 scale) [13, 19]: 60; Corn plant response rating (0 to 100 scale) (corn (Zea mays); Postemergence, 31 g ai/ha): 0; Corn plant response rating (0 to 100 scale) (corn (Zea mays); [19]): 10; Kochia plant response rating (0 to 100 scale) (kochia (Bassia scoparia) [14]; Postemergence, 31 g ai/ha): 50; Kochia plant response rating (0 to 100 scale) (kochia (Bassia scoparia) [14]; [19]): 70; Ryegrass, Italian plant response rating (0 to 100 scale) ([15]; Postemergence, 31 g ai/ha): 20; Ryegrass, Italian plant response rating (0 to 100 scale) [15, 19]: 70; Ragweed plant response rating (0 to 100 scale) ([16]; Postemergence, 31 g ai/ha): 30; Ragweed plant response rating (0 to 100 scale) [16, 19]: 50; Pigweed plant response rating (0 to 100 scale) ([17]; Postemergence, 31 g ai/ha): 20; Pigweed plant response rating (0 to 100 scale) [17, 19]: 70; Galium plant response rating (0 to 100 scale) ([18]; Postemergence, 31 g ai/ha): 0; Galium plant response rating (0 to 100 scale) [18, 19]: 40
2 | C#CCO/N=C(/c1cccc(/C=C\Cl)c1)c1c(O)c(C)nn(C)c1=O [Compound 261] | 0 | 0 | 0 | 0 | 0 | 0 | 0 | 10 | 0 | 0 | 0 | 70 | 0 | 10 | 0 | 10 | 20 | 40 | 10 | 50 | Blackgrass plant response rating (0 to 100 scale) ([12]; Postemergence, 31 g ai/ha): 0; Blackgrass plant response rating (0 to 100 scale) [12, 19]: 60; Wheat plant response rating (0 to 100 scale) ([13]; Postemergence, 31 g ai/ha): 0; Wheat plant response rating (0 to 100 scale) [13, 19]: 50; Corn plant response rating (0 to 100 scale) (corn (Zea mays); Postemergence, 31 g ai/ha): 0; Corn plant response rating (0 to 100 scale) (corn (Zea mays); [19]): 10; Kochia plant response rating (0 to 100 scale) (kochia (Bassia scoparia) [14]; Postemergence, 31 g ai/ha): 30; Kochia plant response rating (0 to 100 scale) (kochia (Bassia scoparia) [14]; [19]): 60; Ryegrass, Italian plant response rating (0 to 100 scale) ([15]; Postemergence, 31 g ai/ha): 0; Ryegrass, Italian plant response rating (0 to 100 scale) [15, 19]: 60; Ragweed plant response rating (0 to 100 scale) ([16]; Postemergence, 31 g ai/ha): 40; Ragweed plant response rating (0 to 100 scale) [16, 19]: 60; Pigweed plant response rating (0 to 100 scale) ([17]; Postemergence, 31 g ai/ha): 50; Pigweed plant response rating (0 to 100 scale) [17, 19]: 60; Galium plant response rating (0 to 100 scale) ([18]; Postemergence, 31 g ai/ha): 40; Galium plant response rating (0 to 100 scale) [18, 19]: 80
3 | C#CCO/N=C(\c1cccc(/C=C\Cl)c1)c1c(O)c(C)nn(C)c1=O [Compound 264] | 0 | 0 | 0 | 0 | 0 | 0 | 0 | 20 | 0 | 0 | 0 | 90 | 0 | 30 | 0 | 30 | 10 | 50 | 10 | 60 | Blackgrass plant response rating (0 to 100 scale) ([12]; Postemergence, 31 g ai/ha): 30; Blackgrass plant response rating (0 to 100 scale) [12, 19]: 60; Wheat plant response rating (0 to 100 scale) ([13]; Postemergence, 31 g ai/ha): 20; Wheat plant response rating (0 to 100 scale) [13, 19]: 50; Corn plant response rating (0 to 100 scale) (corn (Zea mays); Postemergence, 31 g ai/ha): 10; Corn plant response rating (0 to 100 scale) (corn (Zea mays); [19]): 0; Kochia plant response rating (0 to 100 scale) (kochia (Bassia scoparia) [14]; Postemergence, 31 g ai/ha): 40; Kochia plant response rating (0 to 100 scale) (kochia (Bassia scoparia) [14]; [19]): 70; Ryegrass, Italian plant response rating (0 to 100 scale) ([15]; Postemergence, 31 g ai/ha): 0; Ryegrass, Italian plant response rating (0 to 100 scale) [15, 19]: 70; Ragweed plant response rating (0 to 100 scale) ([16]; Postemergence, 31 g ai/ha): 40; Ragweed plant response rating (0 to 100 scale) [16, 19]: 60; Pigweed plant response rating (0 to 100 scale) ([17]; Postemergence, 31 g ai/ha): 40; Pigweed plant response rating (0 to 100 scale) [17, 19]: 60; Galium plant response rating (0 to 100 scale) ([18]; Postemergence, 31 g ai/ha): 50; Galium plant response rating (0 to 100 scale) [18, 19]: 70
4 | CCCCON=C(c1cc(Cl)cc(Cl)c1Cl)c1c(O)c(C)nn(C)c1=O [Compound 268] | 0 | 0 | 0 | 0 | 30 | 70 | 70 | 100 | 0 | 0 | 20 | 90 | 10 | 60 | 0 | 0 | 50 | 60 | 60 | 90 | Blackgrass plant response rating (0 to 100 scale) ([12]; Postemergence, 31 g ai/ha): 0; Blackgrass plant response rating (0 to 100 scale) [12, 19]: 20; Wheat plant response rating (0 to 100 scale) ([13]; Postemergence, 31 g ai/ha): 0; Wheat plant response rating (0 to 100 scale) [13, 19]: 20; Corn plant response rating (0 to 100 scale) (corn (Zea mays); Postemergence, 31 g ai/ha): 0; Corn plant response rating (0 to 100 scale) (corn (Zea mays); [19]): 30; Kochia plant response rating (0 to 100 scale) (kochia (Bassia scoparia) [14]; Postemergence, 31 g ai/ha): 10; Kochia plant response rating (0 to 100 scale) (kochia (Bassia scoparia) [14]; [19]): 20; Ryegrass, Italian plant response rating (0 to 100 scale) ([15]; Postemergence, 31 g ai/ha): 60; Ryegrass, Italian plant response rating (0 to 100 scale) [15, 19]: 100; Ragweed plant response rating (0 to 100 scale) ([16]; Postemergence, 31 g ai/ha): 70; Ragweed plant response rating (0 to 100 scale) [16, 19]: 100; Pigweed plant response rating (0 to 100 scale) ([17]; Postemergence, 31 g ai/ha): 10; Pigweed plant response rating (0 to 100 scale) [17, 19]: 20; Galium plant response rating (0 to 100 scale) ([18]; Postemergence, 31 g ai/ha): 20; Galium plant response rating (0 to 100 scale) [18, 19]: 50
